These results are taken from patent US5691373A, “Nonpeptide endothelin antagonists I” (Warner-Lambert Company, priority 1995, dated 1997).

Where two headings read alike, the source gives them in different places.

In assay [1] the target is T1, ETB (Rattus norvegicus, UniProt P21451).
T1 sequence (P21451 27-442): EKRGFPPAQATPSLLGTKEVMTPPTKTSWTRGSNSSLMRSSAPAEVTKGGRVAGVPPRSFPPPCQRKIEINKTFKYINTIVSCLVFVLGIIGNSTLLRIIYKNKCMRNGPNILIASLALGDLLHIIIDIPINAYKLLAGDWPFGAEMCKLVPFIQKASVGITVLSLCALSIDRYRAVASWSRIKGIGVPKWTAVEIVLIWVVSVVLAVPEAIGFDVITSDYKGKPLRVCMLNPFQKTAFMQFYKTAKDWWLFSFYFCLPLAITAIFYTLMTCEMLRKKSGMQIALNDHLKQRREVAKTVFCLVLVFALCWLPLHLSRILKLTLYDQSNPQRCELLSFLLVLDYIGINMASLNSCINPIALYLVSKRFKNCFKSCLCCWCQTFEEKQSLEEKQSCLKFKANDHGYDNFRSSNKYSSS
To be noted: for inhibition at 10 µM: read-out: ERBA-B % inhibition.

Assay [2] addresses T2, ETA (Oryctolagus cuniculus, UniProt A5A8K3).
T2 sequence (A5A8K3 21-427): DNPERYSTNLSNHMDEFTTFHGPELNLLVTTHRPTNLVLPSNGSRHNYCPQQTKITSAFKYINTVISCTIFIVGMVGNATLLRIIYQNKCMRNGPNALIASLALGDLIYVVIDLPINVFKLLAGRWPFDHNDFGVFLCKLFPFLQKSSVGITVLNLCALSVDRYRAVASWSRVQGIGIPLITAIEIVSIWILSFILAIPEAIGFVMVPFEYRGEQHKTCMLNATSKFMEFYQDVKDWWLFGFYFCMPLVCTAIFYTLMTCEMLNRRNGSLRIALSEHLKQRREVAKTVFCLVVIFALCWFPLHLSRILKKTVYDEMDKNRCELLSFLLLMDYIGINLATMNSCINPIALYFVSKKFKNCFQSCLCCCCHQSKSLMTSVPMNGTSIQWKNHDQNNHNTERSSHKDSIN

Where [3] appears, read: ERBA-A IC50, [125I]-ET-1, rabbit renal artery vascular smooth muscle cells.
Where [4] appears, read: read-out: ERBA-B IC50, [125I]-ET-1, rat cerebellar membranes.
Where [5] appears, read: read-out: ERBA-A IC50, [125I]-ET-1, rabbit renal artery vascular smooth muscle cells.

On to `CCCOc1cccc(CC2=C(c3cccc(OC)c3)C(=O)OC2(O)c2ccc(OC)cc2)c1` (centres unmarked) [Example 154, 5-Hydroxy-5-(4-methoxyphenyl)-3-(3-methoxyphenyl)-4-(3-propoxybenzyl)-5H-fu ran-2-one], for which the IC50 was 2100 nM in assay [1] and 100 nM in assay [2] (setting [3]).
The matching figures for `COc1ccc(C2(O)OC(=O)C(c3cn(C)c4ccccc34)=C2Cc2ccccc2)cc1` (centres unmarked) [Example 170]: 900 nM and 1300 nM.
The matching figures for `COc1ccc(CC2=C(c3ccc(OC)c(OC)c3)C(=O)OC2(O)c2ccc(Cl)cc2)cc1OC` (racemic) [Example 68, 2(5H)-Furanone, 5-(4-chlorophenyl)-3-(3,4-dimethoxyphenyl)-4-[(3,4-dimethoxyphenyl)methyl]-5-hydroxy-, (±)-]: 9800 nM and 1700 nM.
With `CC(C)c1ccc(CC2=C(c3ccc(Cl)c(Cl)c3)C(=O)OC2(O)c2ccc(Cl)cc2)cc1` (centres unmarked) [Example 118, 5-(4-Chlorophenyl)-3-(3,4-dichlorophenyl)-5-hydroxy-4-(4-isopropylbenzyl)-5 H-furan-2-one], the values for the IC50 in assay [1] and in assay [2] (setting [3]) were 13000 nM and 540 nM, respectively.
`COc1ccc(C2=C(Cc3ccc(N(C)C)cc3)C(O)(c3ccc(Cl)cc3)OC2=O)cc1OC` (racemic) [Example 71, 2(5H)-Furanone, 5-(4-Chlorophenyl)-3-(3,4-dimethoxyphenyl)-4-[[4-(dimethylamino)phenyl]methyl]-5-hydroxy-, (±)-] came in with an IC50 in assay [1] of 4200 nM.
With `O=C1OC(O)(c2ccc(Cl)cc2)C(Cc2cccc3ccccc23)=C1c1ccc2c(c1)OCO2` (racemic) [Example 44, 2(5H)-Furanone) 3-(1,3-benzodioxol-5-yl)-5-(4-chlorophenyl)-5-hydroxy-4-(1-naphthalenylmethyl)-, (±)-], the inhibition at 10 µM in assay [1] was 35%. Also, in assay [2] (setting [3]), it took 2800 nM to reach half-maximal inhibition (IC50).
`COc1ccc(C2(O)OC(=O)C(c3ccc4c(c3)OCO4)=C2Cc2ccc(Cl)c(Cl)c2)cc1` (centres unmarked) [Example 78, 3-Benzo[1,3]dioxol-5-yl-4-(3,4-dichlorobenzyl)-5-hydroxy-5-(4-methoxyphenyl)-5H-furan-2-one]: the IC50 amounted to 890 nM in assay [1] and 240 nM in assay [2] (setting [3]).
Take `COc1ccc(C2(O)OC(=O)C(c3cc(OC)cc(OC)c3)=C2Cc2ccccc2)cc1` (centres unmarked) [Example 125, 4-Benzyl-3-(3,5-dimethoxyphenyl)-5-hydroxy-5-(4-methoxyphenyl)-5H-furan-2-one]: the IC50 in assay [1] came out at 200 nM; in assay [2] (setting [3]), 29 nM.
Take `O=C1OC(O)(c2ccccc2)C(Cc2ccccc2)=C1c1ccc2c(c1)OCO2` (centres unmarked) [Example 24, 2(5H)-Furanone, 3-(1,3-benzodioxol-5-yl)-5-hydroxy-5-phenyl-4-(phenylmethyl)-]: the IC50 in assay [1] was found to be 26000 nM.
For the compound `Cc1cccc(CC2=C(c3ccc4c(c3)OCO4)C(=O)OC2(O)c2ccc(Cl)cc2)c1` (centres unmarked) [Example 34, 2(5H)-Furanone, 3-(1,3-benzodioxol-5-yl)-5-(4-chlorophenyl)-5-hydroxy-4-[(3-methylphenyl)methyl]-], the IC50 turned out to be 7000 nM in assay [1] and 1300 nM in assay [2] (setting [3]).
Regarding `COc1ccc(C2(O)OC(=O)C(c3ccc4c(c3)OCO4)=C2Cc2ccc(C(C)(C)C)cc2)cc1` (centres unmarked) [Example 79, 3-Benzo[1,3]dioxol-5-yl-4-(4-tert-butylbenzyl)-5-hydroxy-5-(4-methoxyphenyl)-5H-furan-2-one], the IC50 is 520 nM in assay [1] and 84 nM in assay [2] (setting [3]).
On to `COc1cccc(C2(O)OC(=O)C(c3ccc4c(c3)OCO4)=C2Cc2ccccc2)c1` (centres unmarked) [Example 220, 3-Benzo[1,3]dioixol-5-yl-4-benzyl-5-hydroxy-5-(3-methoxyphenyl)-5H-furan-2-one], for which the half-maximal inhibitory concentration (IC50) in assay [1] was found to be 1500 nM; in assay [2] (setting [3]), 300 nM.
The matching figures for `O=C1OC(O)(c2ccccc2)C(Cc2ccsc2)=C1c1ccc2c(c1)OCO2` (centres unmarked) [Example 26, 2(5H)-Furanone, 3-(1,3-benzodioxol-5-yl)-5-hydroxy-5-phenyl-4-(3-thienylmethyl)-]: 15500 nM and 790 nM.
The matching figures for `COc1ccc(CC2=C(c3ccc4c(c3)OCO4)C(=O)OC2(O)c2ccc(Cl)cc2)cc1` (centres unmarked) [Example 32, 2(5H)-Furanone, 3-(1,3-benzodioxol-5-yl)-5-(4-chlorophenyl)-5-hydroxy-4-[(4-methoxyphenyl)methyl]-]: 6300 nM and 1000 nM.
The matching figures for `COc1ccc(C2=C(Cc3ccc4c(c3)OCO4)C(O)(c3ccc(Cl)cc3)OC2=O)cc1OC` (racemic) [Example 65, 2(5H)-Furanone, 4-(1,3-benzodioxol-5-ylmethy)-5-(4-chlorophenyl)-3-(3,4-dimethoxyphenyl)-5-hydroxy, (±)-]: 6000 nM and 9300 nM.
`O=C1OC(O)(c2ccc(Cl)cc2)C(Cc2ccccc2)=C1c1ccc2c(c1)OCO2` (centres unmarked) [Example 39, 2(5H)-Furanone, 3-(1,3-benzodioxol-5-yl)-5-(4-chlorophenyl)-5-hydroxy-4-(phenylmehyl)-] yielded an IC50 in assay [1] of 4200 nM.
As to `O=C1OC(O)(c2ccccc2)C(Cc2cccs2)=C1c1ccc2c(c1)OCO2` (centres unmarked) [Example 25, 2(5H)-Furanone, 3-(1,3-benzodioxol-5-yl)-5-hydroxy-5-phenyl-4-(2-thienylmethyl)-], the IC50 in assay [1] was determined as 15600 nM; in assay [2] (setting [3]), 1700 nM.
Regarding `O=C1OC(O)(c2ccc(Cl)cc2)C(Cc2cccc(Cl)c2)=C1c1ccc2c(c1)OCO2` (centres unmarked) [Example 74, 2(5H)-Furanone, 3-(1,3-benzodioxol-5)-5-(4-chlorophenyl)-4-[(3-chlorophenyl)methyl]-5-hydroxy], the IC50 amounted to 12000 nM in assay [1] (setting [4]) and 2500 nM in assay [2] (setting [5]).
As to `CC(C)c1ccc(C2=C(Cc3cccc4ccccc34)C(O)(c3ccc(Cl)cc3)OC2=O)cc1` (racemic) [Example 40, 2(5H)-Furanone, 5-(4-chlorophenyl)-5-hydroxy-3-[4-(1-methylethyl)phenyl]-4-(1-naphthalenylmethyl)-, (±)-], in assay [1], the inhibition at 10 µM worked out at 22%.
`O=C1OC(O)(c2ccc(Cl)cc2)C(Cc2ccc3c(c2)OCO3)=C1c1ccc(Cl)c(Cl)c1` (racemic) [Example 69, 2(5H)-Furanone, 4-(1,3-benzodioxol-5-ylmethyl)-5-(4-chlorophenyl)-3-(3,4-dichlorophenyl)-5-hydroxy-, (±)-]: the IC50 in assay [1] worked out at 8400 nM; in assay [2] (setting [3]), 9100 nM.
The matching figures for `O=C1OC(O)(c2ccc(Cl)cc2)C(Cc2ccccc2)=C1c1ccc2c(c1)OCCO2` (centres unmarked) [Example 30, 2(5H)-Furanone, 5-(4-chlorophenyl)-3-(2,3-dihydro-1,4-benzodioxin-6-yl)-5-hydroxy-4-(phenylmethyl)-]: 13000 nM and 7900 nM.
The matching figures for `CC(C)c1ccc(CC2=C(c3ccc4c(c3)OCO4)C(=O)OC2(O)c2ccc(Cl)cc2)cc1` (racemic) [Example 45, 2(5H)-Furanone, 3-(1,3-benzodioxol-5-yl)-5-(4-chlorophenyl)-5-hydroxy-4-[[4-(1-methylethyl)phenyl]methyl]-, (35)-]: 9100 nM and 1500 nM.
Take `CC(C)c1ccc(C2=C(Cc3ccc4c(c3)OCO4)C(O)(c3ccc(Cl)cc3)OC2=O)cc1` (racemic) [Example 42, 2(5H)-Furanone, 4-(1,3-benzodioxol-5-ylmethyl)-5-(4-chlorophenyl)-5-hydroxy-3-[4-(1-methylethyl)phenyl]-, (±)-]: the inhibition at 10 µM in assay [1] was found to be 54%; in assay [2] (read-out: ERBA-A % inhibition), 36%.
Consider `O=C1OC(O)(c2ccc(Cl)cc2)C(Cc2ccc3ccccc3c2)=C1c1ccc2c(c1)OCO2` (racemic) [Example 43, 2(5H)-Furanone, 3-(1,3-benzodioxol-5-yl)-5-(4-chlorophenyl)-5-hydroxy-4-(2-naphthalenylmethyl)-, (±)-], for which the IC50 in assay [1] (setting [4]) came out at 7000 nM; in assay [2] (setting [5]), 2700 nM.
Turning to `COc1ccc(CC2=C(c3ccc4c(c3)OCO4)C(=O)OC2(O)c2ccc(OC)cc2)cc1` (centres unmarked) [Example 77, 3-Benzo[1,3]dioxol-5-yl-5-hydroxy-4-(4-methoxybenzyl)-5-(4-methoxyphenyl)-5 H-furan-2-one], in assay [1] (setting [4]), the IC50 turned out to be 220 nM.
Compound `CN(C)c1ccc(CC2=C(c3ccc(N(C)C)cc3)C(=O)OC2(O)c2ccc(Cl)cc2)cc1` (racemic) [Example 55, 2(5H)-Furanone, 5-(4-chlorophenyl)-3-[4-(dimethylamino)phenyl]-4-[[4-(dimethylamino)phenyl]methyl]-5-hydroxy-, (±)-] had a concentration for half-maximal inhibition (IC50) in assay [1] of 21000 nM.
The same measure, in the same setting: in the case of `CN(C)c1ccc(C2=C(Cc3ccc4c(c3)OCO4)C(O)(c3ccc(Cl)cc3)OC2=O)cc1` (racemic) [Example 54, 2(5H)-Furanone, 4-(1,3-benzodioxol-5-ylmethyl)-5-(4-chlorophenyl)-3-[4-(dimethylamino)phenyl]-5-hydroxy-, (±)-] it was 18000 nM.

Usually IC50 stands for the concentration needed to halve the response being measured. As a reminder, the inhibition is how much of the control response was suppressed.
